Reference: patent US8709451B2, “Stable nanoemulsions for ultrasound-mediated drug delivery and imaging” (University of Utah Research Foundation, priority 2010, dated 2014)

How the values were obtained:
[1] = system: A2780 ovarian cancer cells; test: Sonication of suspended cells with DOX formulations, confocal imaging; assay type: cell-based; details: 3-MHz CW ultrasound, DOX 10 μg/mL
Experimental: A2780 cells were lifted off the culture T-flasks with 1× Trypsin (0.25% trypsin, 0.02% EDTA, Sigma Aldrich, St Louis, Mo.). The cells were resuspended in media. This suspension was mixed 2:1 volume ratio with DOX-containing formulations with typical cell concentrations of 5.7×10^6 cells/mL. Two types of DOX solutions in PBS were used: hydrophilic hydrochloride salt DOX-HCl (20 μg/mL) or deprotonated DOX; the concentration in PBS was 20 μg/mL for either molecule. DOX formulations included deprotonated DOX incorporated in 1.4% PEG-PCL micellar solution or DOX incorporated in 1% PFCE or PFP PEG-PCL emulsion; DOX concentration was the same as in PBS solutions (20 μg/mL). […] Pressure was measured using ONDA needle hydrophone (Onda HNR-0500) (calibrated in October, 2009) placed in front of the probe with a distance of 0.5 cm from the probe. […] After ultrasound treatments, a droplet of the cell suspension was placed on a glass slide, and the fluorescence inside the cells was observed and quantified using confocal microscope as described above. […]

[2] = system: A2780 ovarian cancer cells; test: Confocal imaging of DOX uptake by substrate-attached cells without ultrasound; assay type: cell-based; details: no ultrasound, 20 μg/mL DOX
Experimental: A2780 cells were grown on cover glass in an 8 well cover glass chamber (LabTek chambered cover glass, NUNC, Rochester, N.Y.), and incubated with either, DOX dissolved in PBS, DOX-loaded 1.4% PEG-PCL micelle solution, or DOX-loaded 1% PFCE or PFP emulsions. Hoechst 33258 (Sigma Aldrich, St Louis, Mo.) stain was used to identify the nuclei of the A2780 cancer cells. Confocal fluorescent images of the cells were obtained using inverted confocal microscope (Olympus IX81, Olympus America Inc., Center Valley, Pa.); and the images were processed using ImageJ software. Emission filters of 570 nm for DOX and 480 nm for Hoechst were selected for imaging. In some experiments, DAPI was added to stain the cells before incubation with DOX and ultrasound exposure as discussed below.
A2780 drug sensitive cells, grown on chambered cover slip were incubated with different DOX formulations and confocal fluorescent images were obtained (FIGS. 14 and 15). Different image slices of the cell layer attached to the cover slip were recorded at an incremental step of 0.5 μm depth from the bottom to top of the cell layer (z-direction). The images recorded were stacked in z-direction and processed using ImageJ. The brightness and contrast ratios of magnified insets of the images were modified to reveal the intracellular distribution of fluorescence. […]
DOX fluorescence inside the cells was characterized by the R/G ratio where R is the intensity of red color and G is that of green color at the same region of interest (ROI) inside the cells. This ratio is used because DOX absorbs green light that ignites its red fluorescence. The R and G values and ratios were measured using ImageJ software.
The red/green (R/G) ratio of the fluorescence inside the cells and R/G ratio of the background fluorescence from the cover slip were measured. […] The cells incubated with either PFCE or PFP droplets have lower fluorescence (R/G ratios of 0.31 and 0.14 for PFCE and PFP respectively) than the cells incubated with DOX in micellar solution (R/G ratio of 0.63). […]

Compound | effect of ultrasound on DOX penetration into cell nuclei [1] | DOX penetration into cell nuclei [2] | cellular uptake of DOX [2]
COc1cccc2c1C(=O)c1c(O)c3c(c(O)c1C2=O)C[C@@](O)(C(=O)CO)C[C@@H]3O[C@H]1C[C@H](N)[C@H](O)[C@H](C)O1 [deprotonated DOX, doxorubicin] | marginal | did not get into the nuclei | low cellular uptake
COc1cccc2c1C(=O)c1c(O)c3c(c(O)c1C2=O)C[C@@](O)(C(=O)CO)C[C@@H]3O[C@H]1C[C@H](N)[C@H](O)[C@H](C)O1.Cl [hydrophilic DOX, doxorubicin] | – | red fluorescence in the nuclei | –
